# Measured values published in US20120029187A1, “HALOALKYLSULFONANILIDE DERIVATIVE” (Nissan Chemical Industries, Ltd., priority 2009, published 2012).
# How the values were obtained:
# Format in all cases: in vivo
# [1] = system: water foxtail; experiment: Test Example 4: herbicidal effect in foliage treatment; settings: dose 3.2 g/a, three weeks after application
# Procedure, shortened: (§1)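 Herbicidal effect was rated on an evaluation scale three weeks after treatment. Plants had been raised 14 days at 25 to 30° C in sterilized diluvial soil, then received foliar sprays of emulsifiable concentrate diluted in water at predetermined doses expressed as g per are.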
# [2] = system: Italian ryegrass; experiment: as above; settings: dose 3.2 g/a, three weeks after application
# Procedure, shortened: as §1
# [3] = system: common lambsquater; experiment: as above; settings: dose 3.2 g/a, three weeks after application
# Procedure, shortened: as §1
# [4] = system: barnyardgrass; experiment: as above; settings: dose 3.2 g/a, three weeks after application
# Procedure, shortened: as §1
# [5] = system: wild oat; experiment: as above; settings: dose 3.2 g/a, three weeks after application
# Procedure, shortened: as §1
# [6] = system: beadstraw; experiment: as above; settings: dose 3.2 g/a, three weeks after application
# Procedure, shortened: as §1
# [7] = system: redroot pigweed; experiment: as above; settings: dose 3.2 g/a, three weeks after application
# Procedure, shortened: as §1
# [8] = system: common chickweed; experiment: as above; settings: dose 3.2 g/a, three weeks after application
# Procedure, shortened: as §1
# [9] = system: common ragweed; experiment: as above; settings: dose 3.2 g/a, three weeks after application
# Procedure, shortened: as §1
# [10] = system: velvetleaf; experiment: as above; settings: dose 3.2 g/a, three weeks after application
# Procedure, shortened: as §1
# [11] = system: giant foxtail; experiment: as above; settings: dose 3.2 g/a, three weeks after application
# Procedure, shortened: as §1
# [12] = system: large crabgrass; experiment: as above; settings: dose 3.2 g/a, three weeks after application
# Procedure, shortened: as §1
# [13] = system: posumbu knotweed; experiment: as above; settings: dose 3.2 g/a, three weeks after application
# Procedure, shortened: as §1
# [14] = system: transplanted rice; experiment: Test Example 1: preemergence treatment under submerged conditions, effect on crop; settings: dose 2.52 g/a
# Procedure, shortened: (§2)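 Alluvial soil was flooded to 4 cm, sown with barnyardgrass, bulrush and ducksalad, and planted with 2.5-leaf rice seedlings. On the seeding day, water-diluted emulsifiable concentrates were applied to the water surface at set doses (g/a). After three weeks in a 25 to 30° C. greenhouse, mortality was scored 0–5.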
# [15] = system: bulrush; experiment: Test Example 1: herbicidal effects in preemergence treatment under submerged conditions; settings: dose 2.52 g/a
# Procedure, shortened: as §2
# [16] = system: barnyardgrass; experiment: as above; settings: dose 2.52 g/a
# Procedure, shortened: as §2
# [17] = system: ducksalad; experiment: as above; settings: dose 2.52 g/a
# Procedure, shortened: as §2
# [18] = system: bulrush; experiment: Test Example 2: herbicidal effects during the vegetation period under submerged conditions; settings: treatment during the vegetation period under submerged conditions; dose 2.52 g/a
# Procedure, shortened: (§3)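 Barnyardgrass, bulrush and ducksalad were co-sown in alluvial soil flooded to 4 cm and grown in a greenhouse at 25 to 30° C. At the 1- or 2-leaf stage, water-diluted emulsifiable concentrates went onto the water surface at set doses (g/a). Herbicidal effect was scored three weeks later on a graded scale.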
# [19] = system: barnyardgrass; experiment: as above; settings: treatment during the vegetation period under submerged conditions; dose 2.52 g/a
# Procedure, shortened: as §3
# [20] = system: ducksalad; experiment: as above; settings: treatment during the vegetation period under submerged conditions; dose 2.52 g/a
# Procedure, shortened: as §3
# [21] = system: water foxtail; experiment: Test Example 3: herbicidal effects in soil treatment; settings: dose 3.2 g/a
# Procedure, shortened: (§4)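 Seeds were sown in sterilized diluvial soil and covered with about 1.5 cm of soil. Compounds, formulated as emulsifiable concentrates and diluted with water, were sprayed evenly over the soil surface at set doses in g/a. Herbicidal effect was scored on a rating scale three weeks later.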
# [22] = system: Italian ryegrass; experiment: as above; settings: dose 3.2 g/a
# Procedure, shortened: as §4
# [23] = system: common lambsquater; experiment: as above; settings: dose 3.2 g/a
# Procedure, shortened: as §4
# [24] = system: barnyardgrass; experiment: as above; settings: dose 3.2 g/a
# Procedure, shortened: as §4
# [25] = system: wild oat; experiment: as above; settings: dose 3.2 g/a
# Procedure, shortened: as §4
# [26] = system: beadstraw; experiment: as above; settings: dose 3.2 g/a
# Procedure, shortened: as §4
# [27] = system: redroot pigweed; experiment: as above; settings: dose 3.2 g/a
# Procedure, shortened: as §4
# [28] = system: common chickweed; experiment: as above; settings: dose 3.2 g/a
# Procedure, shortened: as §4
# [29] = system: common ragweed; experiment: as above; settings: dose 3.2 g/a
# Procedure, shortened: as §4
# [30] = system: velvetleaf; experiment: as above; settings: dose 3.2 g/a
# Procedure, shortened: as §4
# [31] = system: giant foxtail; experiment: as above; settings: dose 3.2 g/a
# Procedure, shortened: as §4
# [32] = system: large crabgrass; experiment: as above; settings: dose 3.2 g/a
# Procedure, shortened: as §4
structure (smiles),measurement,setting,value
CCOC(=O)N(c1ccccc1CN1CC(C)(C)OCC1=O)S(=O)(=O)C(F)(F)F [Compound I-16],"G: water foxtail, herbicidal effect",[1],5 (mortality of 90% or above (nearly complete death))
same,"H: Italian ryegrass, herbicidal effect",[2],4 (mortality of at least 70% and less than 90%)
same,"L: common lambsquater, herbicidal effect",[3],2 (mortality of at least 20% and less than 40%)
same,"A: barnyardgrass, herbicidal effect",[4],5 (mortality of 90% or above (nearly complete death))
same,"F: wild oat, herbicidal effect",[5],3 (mortality of at least 40% and less than 70%)
same,"O: beadstraw, herbicidal effect",[6],3 (mortality of at least 40% and less than 70%)
same,"K: redroot pigweed, herbicidal effect",[7],2 (mortality of at least 20% and less than 40%)
same,"N: common chickweed, herbicidal effect",[8],5 (mortality of 90% or above (nearly complete death))
same,"J: common ragweed, herbicidal effect",[9],5 (mortality of 90% or above (nearly complete death))
same,"I: velvetleaf, herbicidal effect",[10],5 (mortality of 90% or above (nearly complete death))
same,"E: giant foxtail, herbicidal effect",[11],4 (mortality of at least 70% and less than 90%)
same,"D: large crabgrass, herbicidal effect",[12],4 (mortality of at least 70% and less than 90%)
same,"M: posumbu knotweed, herbicidal effect",[13],3 (mortality of at least 40% and less than 70%)
same,"a: transplanted rice, effect on crop (evaluation scale 0-5)",[14],2 (mortality of at least 20% and less than 40%)
same,"B: bulrush, herbicidal effect (evaluation scale 0-5)",[15],5 (mortality of 90% or above (nearly complete death))
same,"A: barnyardgrass, herbicidal effect (evaluation scale 0-5)",[16],5 (mortality of 90% or above (nearly complete death))
same,"C: ducksalad, herbicidal effect (evaluation scale 0-5)",[17],5 (mortality of 90% or above (nearly complete death))
same,"B: bulrush, herbicidal effect (evaluation scale 0-5)",[18],5 (mortality of 90% or above (nearly complete death))
same,"A: barnyardgrass, herbicidal effect (evaluation scale 0-5)",[19],5 (mortality of 90% or above (nearly complete death))
same,"C: ducksalad, herbicidal effect (evaluation scale 0-5)",[20],5 (mortality of 90% or above (nearly complete death))
same,"G: water foxtail, herbicidal effect (evaluation scale 0-5)",[21],5 (mortality of 90% or above (nearly complete death))
same,"H: Italian ryegrass, herbicidal effect (evaluation scale 0-5)",[22],4 (mortality of at least 70% and less than 90%)
same,"L: common lambsquater, herbicidal effect (evaluation scale 0-5)",[23],3 (mortality of at least 40% and less than 70%)
same,"A: barnyardgrass, herbicidal effect (evaluation scale 0-5)",[24],5 (mortality of 90% or above (nearly complete death))
same,"F: wild oat, herbicidal effect (evaluation scale 0-5)",[25],3 (mortality of at least 40% and less than 70%)
same,"O: beadstraw, herbicidal effect (evaluation scale 0-5)",[26],0 (mortality of less than 5% (almost ineffective))
same,"K: redroot pigweed, herbicidal effect (evaluation scale 0-5)",[27],5 (mortality of 90% or above (nearly complete death))
same,"N: common chickweed, herbicidal effect (evaluation scale 0-5)",[28],5 (mortality of 90% or above (nearly complete death))
same,"J: common ragweed, herbicidal effect (evaluation scale 0-5)",[29],5 (mortality of 90% or above (nearly complete death))
same,"I: velvetleaf, herbicidal effect (evaluation scale 0-5)",[30],5 (mortality of 90% or above (nearly complete death))
same,"E: giant foxtail, herbicidal effect (evaluation scale 0-5)",[31],5 (mortality of 90% or above (nearly complete death))
same,"D: large crabgrass, herbicidal effect (evaluation scale 0-5)",[32],5 (mortality of 90% or above (nearly complete death))
